{
  "source": "ChEMBL document CHEMBL4673352",
  "about": "“Discovery of AZD4573, a Potent and Selective Inhibitor of CDK9 That Enables Short Duration of Target Engagement for the Treatment of Hematological Malignancies” (J Med Chem, 2020)",
  "key": {"[1]": {"assay": "Drug metabolism in human liver microsome assessed as 4-(4-(2-((1S,3R)-3-acetamidocyclohexanecarboxamido)-5-chloropyridin-4-yl)-1H-pyrazol-5-yl)butanoic acid formation at 10 uM measured after 1 hr in presence of NADPH by LC-UV-MS analysis", "type": "ADME", "conditions": "microsomes"}, "[2]": {"assay": "Clearance in Beagle dog plasma at 5.2 umol/kg, iv administered over 0.25 hrs formulated as solution in 5% DMSO", "type": "ADME, organism-based, Canis lupus familiaris", "conditions": "dose 5.2 µmol/kg"}, "[3]": {"assay": "Drug metabolism in human hepatocytes assessed as (1S,3R)-3-acetamido-N-(5-chloro-4-(5-(4-hydroxybutyl)-1H-pyrazol-4-yl)pyridin-2-yl)cyclohexanecarboxamide metabolite formation", "type": "ADME, cell-based, Hepatocyte"}, "[4]": {"assay": "Volume of distribution at steady state in Beagle dog at 5.2 umol/kg, iv administered as 0.25 hrs formulated as solution in 5% DMSO", "type": "ADME, organism-based, Canis lupus familiaris", "conditions": "in vivo, dose 5.2 µmol/kg, read-out: Vdss"}, "[5]": {"assay": "Clearance in Beagle dog plasma at 0.23 umol/kg, iv administered over 0.25 hrs formulated as solution in 10% DMSO/90% water", "type": "ADME, organism-based, Canis lupus familiaris", "conditions": "dose 0.23 µmol/kg"}, "[6]": {"assay": "Volume of distribution at steady state in Beagle dog at 0.23 umol/kg, iv administered over 0.25 hrs formulated as solution in 10% DMSO/90% water", "type": "ADME, organism-based, Canis lupus familiaris", "conditions": "in vivo, dose 0.23 µmol/kg, read-out: Vdss"}, "[7]": {"molecular_target": "Mitogen-activated protein kinase kinase kinase kinase 4 (Homo sapiens) (UniProt O95819)", "sequence (O95819 2-1239 limits assumed)": "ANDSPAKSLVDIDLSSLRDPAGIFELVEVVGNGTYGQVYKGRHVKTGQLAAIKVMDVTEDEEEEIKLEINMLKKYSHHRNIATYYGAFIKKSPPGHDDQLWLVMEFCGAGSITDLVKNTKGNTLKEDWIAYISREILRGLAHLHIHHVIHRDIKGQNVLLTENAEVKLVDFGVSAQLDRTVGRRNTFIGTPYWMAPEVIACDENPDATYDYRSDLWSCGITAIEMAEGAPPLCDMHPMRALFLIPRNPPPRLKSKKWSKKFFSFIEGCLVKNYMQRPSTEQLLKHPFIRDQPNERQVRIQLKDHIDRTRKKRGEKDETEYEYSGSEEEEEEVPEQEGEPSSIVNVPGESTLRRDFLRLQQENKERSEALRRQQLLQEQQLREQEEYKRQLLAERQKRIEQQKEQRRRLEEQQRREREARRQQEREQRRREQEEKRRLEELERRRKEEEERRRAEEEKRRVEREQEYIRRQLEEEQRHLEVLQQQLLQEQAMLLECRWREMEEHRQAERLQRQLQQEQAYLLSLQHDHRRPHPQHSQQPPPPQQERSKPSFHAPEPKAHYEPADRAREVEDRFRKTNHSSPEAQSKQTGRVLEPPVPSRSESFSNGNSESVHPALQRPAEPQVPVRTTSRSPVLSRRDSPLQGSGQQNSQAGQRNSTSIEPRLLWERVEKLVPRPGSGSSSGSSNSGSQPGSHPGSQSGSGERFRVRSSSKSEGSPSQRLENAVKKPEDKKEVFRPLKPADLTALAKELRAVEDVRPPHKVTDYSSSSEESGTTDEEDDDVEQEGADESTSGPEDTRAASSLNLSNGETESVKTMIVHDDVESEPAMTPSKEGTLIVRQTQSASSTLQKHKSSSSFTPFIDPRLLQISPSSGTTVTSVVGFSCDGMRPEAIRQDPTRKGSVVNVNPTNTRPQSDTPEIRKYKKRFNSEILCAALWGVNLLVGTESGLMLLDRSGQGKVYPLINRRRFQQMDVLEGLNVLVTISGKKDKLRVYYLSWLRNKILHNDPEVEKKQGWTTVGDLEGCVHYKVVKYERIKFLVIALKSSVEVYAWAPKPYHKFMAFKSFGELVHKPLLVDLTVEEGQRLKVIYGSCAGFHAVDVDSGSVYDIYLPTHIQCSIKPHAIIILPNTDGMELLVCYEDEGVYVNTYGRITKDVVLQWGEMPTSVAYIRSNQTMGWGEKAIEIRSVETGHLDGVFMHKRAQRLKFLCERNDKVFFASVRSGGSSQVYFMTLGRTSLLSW", "assay": "Inhibition of recombinant human GST-tagged MAP4K4 catalytic domain expressed in baculovirus expression system at 1 uM by Lanthascreen assay relative to control", "conditions": "time 60.0 min"}, "[8]": {"molecular_target": "T1, Glycogen synthase kinase-3 alpha (Homo sapiens, UniProt P49840)", "assay": "Inhibition of GSK3alpha (unknown origin) in presence of 5 mM ATP"}, "MV4-11 [9]": {"system": "MV4-11", "assay": "Antitumor activity against human MV4-11 cells xenografted in CB17 SCID mouse assessed as tumor growth inhibition at 5 mg/kg, ip BID administered at 2 hrs dose interval with 2 days on and 5 days off dosing schedule measured 33 days post initial dose", "type": "functional", "conditions": "MV4-11, ip, 792 h, time 33 day, read-out: TGI"}, "[10]": {"molecular_target": "Cyclin-dependent kinase 9 (Mus musculus) (UniProt Q99J95)", "sequence (Q99J95 whole entry)": "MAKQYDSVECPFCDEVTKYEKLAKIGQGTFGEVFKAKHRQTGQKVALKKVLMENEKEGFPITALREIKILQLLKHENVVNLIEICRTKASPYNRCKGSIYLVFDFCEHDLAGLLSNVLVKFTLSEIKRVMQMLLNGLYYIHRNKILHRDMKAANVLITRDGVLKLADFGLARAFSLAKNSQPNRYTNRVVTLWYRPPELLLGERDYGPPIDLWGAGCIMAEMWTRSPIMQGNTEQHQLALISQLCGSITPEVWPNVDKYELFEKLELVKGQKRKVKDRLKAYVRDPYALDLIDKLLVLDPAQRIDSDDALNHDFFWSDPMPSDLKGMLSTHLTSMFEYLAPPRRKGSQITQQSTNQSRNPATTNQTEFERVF", "assay": "In-vivo inhibition of CDK9 in mouse xenografted with human MV4-11 cells assessed as reduction in RNA Polymerase 2 CTD phosphorylation at Ser2 residues at 5 to 15 mg/kg, ip BID administered at 2 hrs dose interval with 2 days on and 5 days off dosing schedule by Western blot analysis", "type": "functional, organism-based", "conditions": "dose 5-15 mg/kg"}, "MV4-11 [11]": {"system": "MV4-11", "assay": "Antitumor activity against human MV4-11 cells xenografted in CB17 SCID mouse assessed as tumor regression at 15 mg/kg, ip BID administered at 2 hrs dosing interval with 2 days on and 5 days off dosing schedule observed for 125 days", "type": "functional", "conditions": "time 125 day"}, "[12]": {"assay": "Drug metabolism in human liver microsomes assessed as (1S,3R)-3-acetamido-N-(5-chloro-4-(5-(3-hydroxy-2,2-dimethylpropyl)-1H-pyrazol-4-yl)pyridin-2-yl)cyclohexanecarboxamide formation at 10 uM measured after 1 hr in presence of NADPH by LC-UV-MS analysis", "type": "ADME, Microsome"}, "NOMO-1 [13]": {"system": "NOMO-1", "assay": "Antitumor activity against human NOMO1 cells xenografted in CB17 SCID mouse assessed as tumor regression at 15 mg/kg, ip BID administered at 2 hrs dosing interval with 2 days on and 5 days off dosing schedule measured 12 days post initial dose", "type": "functional", "conditions": "time 12 day"}, "[14]": {"molecular_target": "Casein kinase I isoform gamma-2 (Homo sapiens, UniProt P78368)", "sequence (P78368 whole entry, canonical isoform)": "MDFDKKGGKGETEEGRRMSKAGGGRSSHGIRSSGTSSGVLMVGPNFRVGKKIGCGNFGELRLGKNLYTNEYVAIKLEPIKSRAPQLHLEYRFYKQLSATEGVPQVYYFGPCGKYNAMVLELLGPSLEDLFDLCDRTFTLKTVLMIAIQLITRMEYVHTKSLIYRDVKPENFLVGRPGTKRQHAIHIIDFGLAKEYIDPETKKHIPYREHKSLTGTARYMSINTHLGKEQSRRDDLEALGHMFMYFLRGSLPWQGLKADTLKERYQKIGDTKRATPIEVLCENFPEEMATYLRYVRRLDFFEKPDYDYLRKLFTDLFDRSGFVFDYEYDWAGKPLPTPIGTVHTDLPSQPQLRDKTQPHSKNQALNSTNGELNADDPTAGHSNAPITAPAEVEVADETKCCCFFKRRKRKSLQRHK", "assay": "Inhibition of CK1gamma2 (unknown origin) in presence of 5 mM ATP"}, "[15]": {"molecular_target": "Mitogen-activated protein kinase 8 (Homo sapiens, UniProt P45983)", "sequence (P45983 whole entry)": "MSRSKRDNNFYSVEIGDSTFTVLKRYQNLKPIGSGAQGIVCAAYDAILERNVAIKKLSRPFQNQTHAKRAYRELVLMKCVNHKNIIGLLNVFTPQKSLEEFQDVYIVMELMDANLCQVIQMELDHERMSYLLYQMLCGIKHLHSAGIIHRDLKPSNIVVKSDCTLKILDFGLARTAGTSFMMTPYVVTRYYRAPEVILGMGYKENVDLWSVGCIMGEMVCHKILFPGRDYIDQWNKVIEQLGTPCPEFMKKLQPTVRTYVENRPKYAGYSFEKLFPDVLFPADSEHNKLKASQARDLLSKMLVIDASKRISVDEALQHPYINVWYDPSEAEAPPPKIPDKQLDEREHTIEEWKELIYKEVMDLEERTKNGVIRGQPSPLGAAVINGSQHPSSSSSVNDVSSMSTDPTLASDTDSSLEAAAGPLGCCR", "assay": "Inhibition of JNK1 (unknown origin) in presence of 5 mM ATP"}, "[16]": {"molecular_target": "T1, Glycogen synthase kinase-3 alpha", "assay": "Inhibition of kinase tracer 236 binding to N-terminal GST-tagged human full length GSK3alpha expressed in baculovirus expression system by Lanthascreen Eu kinase binding assay", "conditions": "dose 0.1 µM, time 60.0 min"}, "[17]": {"assay": "Drug metabolism in human hepatocytes assessed 3-(4-(2-((1S,3R)-3-acetamidocyclohexanecarboxamido)-5-chloropyridin-4-yl)-1H-pyrazol-5-yl)-2,2-dimethylpropanoic acid metabolite formation", "type": "ADME, cell-based, Hepatocyte"}, "NOMO-1 [18]": {"system": "NOMO-1", "assay": "Antitumor activity against human NOMO1 cells xenografted in CB17 SCID mouse assessed as tumor growth inhibition at 5 mg/kg, ip BID administered at 2 hrs dosing interval with 2 days on and 5 days off dosing schedule measured 12 days post initial dose", "type": "functional", "conditions": "NOMO-1, ip, 288 h, time 12 day, read-out: TGI"}, "[19]": {"assay": "Drug metabolism in human hepatocytes assessed as (1S,3R)-3-acetamido-N-(5-chloro-4-(6-hydroxy-5,5-dimethyl-5,6-dihydro-4H-pyrrolo[1,2-b]pyrazol-3-yl)pyridin-2-yl)cyclohexanecarboxamide metabolite formation", "type": "ADME, cell-based, Hepatocyte"}, "[20]": {"molecular_target": "Mitogen-activated protein kinase 15 (Homo sapiens) (UniProt Q8TD08)", "sequence (Q8TD08 whole entry)": "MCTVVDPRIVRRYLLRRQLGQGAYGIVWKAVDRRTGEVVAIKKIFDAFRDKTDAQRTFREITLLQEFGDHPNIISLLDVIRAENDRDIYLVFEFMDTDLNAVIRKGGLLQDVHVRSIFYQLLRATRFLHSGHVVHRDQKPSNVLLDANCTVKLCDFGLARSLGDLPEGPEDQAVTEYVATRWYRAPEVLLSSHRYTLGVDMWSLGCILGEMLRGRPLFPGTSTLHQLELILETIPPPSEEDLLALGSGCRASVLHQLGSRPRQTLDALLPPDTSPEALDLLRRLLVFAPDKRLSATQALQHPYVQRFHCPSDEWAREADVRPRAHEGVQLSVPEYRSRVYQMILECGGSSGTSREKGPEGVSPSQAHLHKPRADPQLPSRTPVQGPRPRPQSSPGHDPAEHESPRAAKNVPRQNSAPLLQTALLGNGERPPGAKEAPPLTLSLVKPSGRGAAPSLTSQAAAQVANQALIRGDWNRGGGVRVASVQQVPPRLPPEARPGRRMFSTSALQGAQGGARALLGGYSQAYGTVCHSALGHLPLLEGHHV", "assay": "Inhibition of human recombinant N-terminal FLAG-tagged ERK7 expressed in Sf9 insect cells at 0.1 uM incubated for 60 mins by TR-FRET based LanthaScreen Eu kinase binding assay relative to control"}, "[21]": {"molecular_target": "Dual specificity tyrosine-phosphorylation-regulated kinase 2 (Homo sapiens, UniProt Q92630)", "sequence (Q92630 whole entry)": "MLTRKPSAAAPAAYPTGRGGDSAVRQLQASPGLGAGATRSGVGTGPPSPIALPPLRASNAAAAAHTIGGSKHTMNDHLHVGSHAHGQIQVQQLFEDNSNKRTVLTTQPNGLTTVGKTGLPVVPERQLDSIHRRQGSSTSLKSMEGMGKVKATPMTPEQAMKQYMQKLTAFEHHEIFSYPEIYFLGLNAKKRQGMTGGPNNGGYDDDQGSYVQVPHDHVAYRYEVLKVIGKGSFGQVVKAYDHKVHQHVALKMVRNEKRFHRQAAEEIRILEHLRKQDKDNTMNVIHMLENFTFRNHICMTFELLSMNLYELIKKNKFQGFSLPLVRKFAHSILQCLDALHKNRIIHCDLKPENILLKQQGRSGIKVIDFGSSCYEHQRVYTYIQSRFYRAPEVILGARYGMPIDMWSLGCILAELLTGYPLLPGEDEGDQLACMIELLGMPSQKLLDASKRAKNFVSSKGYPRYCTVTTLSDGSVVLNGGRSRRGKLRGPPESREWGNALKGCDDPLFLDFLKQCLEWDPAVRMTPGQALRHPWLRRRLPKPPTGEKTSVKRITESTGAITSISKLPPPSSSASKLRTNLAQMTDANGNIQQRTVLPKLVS", "assay": "Inhibition of DYRK2 (unknown origin) in presence of 5 mM ATP"}, "[22]": {"assay": "Clearance in mouse plasma at […], iv", "type": "ADME", "conditions": "dose 2.4 µmol/kg"}, "CDK9/cyclin T1": {"molecular_target": "CDK9/cyclin T1 (Homo sapiens, UniProt P50750)", "sequence (O60563 whole entry)": "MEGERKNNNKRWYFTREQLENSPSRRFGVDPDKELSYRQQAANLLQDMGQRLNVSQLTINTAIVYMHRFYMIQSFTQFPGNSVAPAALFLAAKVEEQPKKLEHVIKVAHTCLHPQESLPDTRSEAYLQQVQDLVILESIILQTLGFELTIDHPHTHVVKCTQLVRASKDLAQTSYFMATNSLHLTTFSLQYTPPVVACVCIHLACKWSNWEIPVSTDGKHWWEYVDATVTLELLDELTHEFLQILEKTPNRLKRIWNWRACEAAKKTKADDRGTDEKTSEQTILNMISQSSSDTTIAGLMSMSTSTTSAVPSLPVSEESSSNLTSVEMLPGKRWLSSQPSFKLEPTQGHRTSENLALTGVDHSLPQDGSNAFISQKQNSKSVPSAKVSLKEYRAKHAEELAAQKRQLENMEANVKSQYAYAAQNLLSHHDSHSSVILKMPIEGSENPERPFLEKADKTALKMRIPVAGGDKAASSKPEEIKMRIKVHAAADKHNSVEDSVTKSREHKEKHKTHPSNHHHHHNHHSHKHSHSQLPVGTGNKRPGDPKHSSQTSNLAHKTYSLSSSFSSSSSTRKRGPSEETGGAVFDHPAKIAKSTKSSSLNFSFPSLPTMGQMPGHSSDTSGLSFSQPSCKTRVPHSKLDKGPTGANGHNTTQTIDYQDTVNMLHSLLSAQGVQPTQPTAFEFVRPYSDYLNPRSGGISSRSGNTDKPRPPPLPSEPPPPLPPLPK", "sequence (P50750 whole entry)": "as the sequence (Q99J95 whole entry) above, with T17S, K37R, Q40K, K258N, F262Y counted along it", "assay": "Binding affinity to human CDK9/CyclinT assessed as equilibrium dissociation constant by surface plasmon resonance analysis", "type": "protein-complex assay"}, "Homo sapiens [23]": {"organism": "Homo sapiens", "assay": "Selectivity ratio of IC50 for recombinant full length human His-tagged CDK1/CyclinB expressed in baculovirus infected insect cells to IC50 for Inhibition of recombinant full length human N-terminal GST-fused CDK9 (1 to 372 residues)/His-tagged CyclinT1 (1 to 726 residues) expressed in baculovirus infected insect cells"}, "Homo sapiens [24]": {"organism": "Homo sapiens", "assay": "Selectivity ratio of IC50 for CDK5 (unknown origin) in presence of 5 mM ATP to IC50 for Inhibition of recombinant full length human N-terminal GST-fused CDK9 (1 to 372 residues)/His-tagged CyclinT1 (1 to 726 residues) expressed in baculovirus infected insect cells"}, "[25]": {"assay": "Half-life in Beagle dog at […], iv administered over 0.25 hrs formulated as solution in DMSO/Captisol", "type": "ADME, organism-based, Canis lupus familiaris", "conditions": "in vivo, dose 0.24 µmol/kg"}, "[26]": {"molecular_target": "Cyclin-dependent kinase 9 (Homo sapiens, UniProt P50750)", "sequence (P50750 whole entry)": "as the sequence (Q99J95 whole entry) above, with T17S, K37R, Q40K, K258N, F262Y counted along it"}, "[27]": {"molecular_target": "Cyclin-dependent kinase 7/ cyclin H (Homo sapiens) (UniProt P51946+P50613)", "assay": "Inhibition of human recombinant full-length CDK7/CyclinH using peptide as substrate incubated for 40 mins in presence of [gamma-33P]ATP at 1 uM by scintillation counting method relative to control", "type": "protein-complex assay"}, "Homo sapiens [28]": {"organism": "Homo sapiens", "assay": "Selectivity ratio of IC50 for recombinant full length human CDK2/CyclinE expressed in insect cells to IC50 for Inhibition of recombinant full length human N-terminal GST-fused CDK9 (1 to 372 residues)/His-tagged CyclinT1 (1 to 726 residues) expressed in baculovirus infected insect cells"}},
  "note": "The source made the active and inactive calls. The rule behind the calls is not given here.",
  "data": [
    {"compound": "CC(=O)N[C@@H]1CCC[C@H](C(=O)Nc2cc(-c3cnn4c3CCCC4)c(Cl)cn2)C1", "values": [
      {"measurement": "Drug metabolism", "setting": "[1]", "value": "Metabolite_Detected"},
      {"measurement": "clearance", "setting": "[2]", "value": 30, "unit": "mL/min/kg"},
      {"measurement": "Drug metabolism", "setting": "[3]", "value": "Metabolite_Detected"},
      {"measurement": "Vd", "setting": "[4]", "value": 0.9, "unit": "L/kg"}
    ]},
    {"compound": "CC(=O)N[C@@H]1CCC[C@H](C(=O)Nc2cc(-c3cnn4c3CC(C)(C)C4)c(Cl)cn2)C1", "note": "[ZEMIRCICLIB]", "values": [
      {"measurement": "clearance", "setting": "[5]", "value": 16, "unit": "mL/min/kg"},
      {"measurement": "Vd", "setting": "[6]", "value": 0.67, "unit": "L/kg"},
      {"measurement": "inhibition", "setting": "[7]", "value": 85, "unit": "%"},
      {"measurement": "IC50", "setting": "[8]", "value": 187, "unit": "nM"},
      {"measurement": "inhibition in vivo at 5 mg/kg", "setting": "MV4-11 [9]", "value": 97, "unit": "%"},
      {"measurement": "inhibition", "setting": "[10]", "value": "Active"},
      {"measurement": "Activity", "setting": "MV4-11 [11]", "value": 100, "unit": "%"},
      {"measurement": "Drug metabolism", "setting": "[12]", "value": "Metabolite_Detected"},
      {"measurement": "Activity", "setting": "NOMO-1 [13]", "value": 65, "unit": "%"},
      {"measurement": "IC50", "setting": "[14]", "value": 6660, "unit": "nM"},
      {"measurement": "IC50", "setting": "[15]", "value": 2800, "unit": "nM"},
      {"measurement": "inhibition", "setting": "[16]", "value": 96, "unit": "%"},
      {"measurement": "Drug metabolism", "setting": "[17]", "value": "Metabolite_Detected"},
      {"measurement": "inhibition in vivo at 5 mg/kg", "setting": "NOMO-1 [18]", "value": 65, "unit": "%"},
      {"measurement": "Drug metabolism", "setting": "[19]", "value": "Metabolite_Detected"},
      {"measurement": "inhibition", "setting": "[20]", "value": 83, "unit": "%"},
      {"measurement": "IC50", "setting": "[21]", "value": 8620, "unit": "nM"}
    ]},
    {"compound": "CC(=O)N[C@@H]1CCC[C@H](C(=O)Nc2cc(-c3cnn4c3CC(C)(C)C4)c(F)cn2)C1", "values": [
      {"measurement": "clearance", "setting": "[22]", "value": 70, "unit": "mL/min/kg"},
      {"measurement": "Kd", "setting": "CDK9/cyclin T1", "value": 0.123, "unit": "nM"},
      {"measurement": "Ratio IC50", "setting": "Homo sapiens [23]", "value": 16},
      {"measurement": "Ratio IC50", "setting": "Homo sapiens [24]", "value": 16},
      {"measurement": "half-life at 0.25 h", "setting": "[25]", "value": 25.8, "unit": "min"},
      {"measurement": "IC50", "setting": "[26]", "value": "> 3000", "unit": "nM"},
      {"measurement": "inhibition", "setting": "[27]", "value": 92, "unit": "%"},
      {"measurement": "Ratio IC50", "setting": "Homo sapiens [28]", "value": 16}
    ]}
  ]
}
